B1: hLAL: human lysosomal acid lipase expressed from a doxycycline-controlled tissue-specific transgene in lal−/− mice; never administered as a protein (protein)
chain: GPKPVVFLQHGLLADSSNWVTNLANSSLGFILADAGFDVWMGNSRGNTWSRKHKTLSVSQDEFWAFSYDEMAKYDLPASINFILNKTGQEQVYYVGHSQGTTIGFIAFSQIPELAKRIKMFFALGPVASVAFCTSPMAKLGRLPDHLIKDLFGDKEFLPQSAFLKWLGTHVCTHVILKELCGNLCFLLCGFNERNLNMSRVDVYTTHSPAGTSVQNMLHWSQAVKFQKFQAFDWGSSAKNYFHYNQSYPPTYNVKDMLVPTAVWSGGHDWLADVYDVNILLTQITNLVFHESIPEWEHLDFIWGLDAPWRLYNKIINLMRKYQ
modifications: left off: small tags and cut ends
notes: human lysosomal acid lipase expressed from a doxycycline-controlled tissue-specific transgene in lal−/− mice; never administered as a protein

Experiments:
[1] = system: B16 melanoma cells; experiment: Mouse tumor growth model, pre-treated MDSCs co-injected subcutaneously with B16 melanoma cells; assay type: in vivo
Description: (§1) For in vitro PPARγ ligand treatment, 9-HODE (Cayman Chemical Co., Ann Arbor, Mich., USA) was added into the culture medium of MDSCs to a final concentration of 20 μmol/L for 24 or 48 hours. For the study of the effect of PPARγ ligand on the mTOR signaling pathway, bone marrow cells were treated with 9-HODE (20 μmol/L) for 2 hours.
The tumor growth and metastasis model were described in Zhao et al., Oncogene. 2015; 34:1938-48. MDSCs and B16 melanoma cells were collected separately. A pilot study was performed to determine the best ratio between MDSCs and B16 melanoma cells. To test the tumor growth potential, 6×10^5 pre-treated MDSCs and 2×10^5 B16 melanoma cells were mixed, centrifuged and re-suspended in 100 μL PBS, and then injected subcutaneously into the flank region of 3-month old recipient lal^+/+ mice. Tumor volume (length×width^2×π/6) was monitored every week for 4 weeks. To test the metastasis potential, 2×10^6 pre-treated MDSCs and 5×10^5 B16 melanoma cells were mixed and incubated at 37° C., 5% CO2 for 30 minutes. After the incubation, cells were centrifuged, re-suspended, and injected intravenously into 3-month old lal^+/+ mice. Two weeks after the injection, the mice were sacrificed and the lungs were inflated with 4% paraformaldehyde for examination of metastasis.

[2] = system: Ly6G+ MDSCs; experiment: Transwell assay of MDSC transendothelial migration; assay type: cell-based, mouse; details: lal−/− Ly6G+ cells pre-treated 20 μmol/L 48 hours; four hours; vs ethanol
Description: Transwell assay was used to determine MDSC transendothelial migration. SVECs were added to the upper chamber of 24-well 8.0-μm-pore Transwell plates (Corning, Corning, N.Y., USA), and incubated at 37° C., 5% CO2 for 48 hours to form an EC monolayer. The supernatant was then removed, and CellTracker™ Green 5-Chloromethylfluorescein Diacetate (CMFDA) (Invitrogen, Grand Island, N.Y., USA)-labeled MDSCs (2×10^4 cells in 200 μL media) were added to the upper well. After 4 hours, transendothelial migration of MDSCs was determined by counting their numbers in the lower chamber under 5 random microscopic fields.

[3] = system: mTOR pathway; experiment: Flow cytometry of mTOR pathway in gated Ly6G+CD11b+ bone marrow cells; assay type: cell-based, mouse; details: 20 μmol/L, 2 hours
Description: as §1
Single cells from the bone marrow of 5-month-old lal^+/+ and lal^−/− mice were prepared as described in Qu et al., Cancer Res. 2009; 69:7252-7261. After 20 μmol/L 9-HODE treatment for 2 hours, cells were harvested, and labeled with anti-Ly6G and CD11b cell surface antibody (eBioscience) at 4° C. for 15 minutes. Cells were then fixed and permeabilized using BD Cytofix/Cytoperm Fixation/Permeabilization Kit (BD Biosciences) according to the manufacturer's instructions, and incubated with Alexa Fluor 647-conjugated anti-mTOR antibody, Alexa Fluor 488-conjugated anti-S6 antibody, Alexa Fluor 488-conjugated anti-pS6 (Ser235/236) antibody, and rabbit anti-pmTOR (Ser2448) antibody (Cell Signaling Technology, Beverly, Mass., USA) at 4° C. overnight. For anti-pmTOR antibody staining, cells were incubated with Alexa Fluor 647-conjugated anti-rabbit IgG in the following day. Cells were washed and ready for flow cytometry analysis. Mean fluorescence intensities of the proteins in the gated Ly6G^+CD11b^+ area were analyzed. For flow cytometry analysis, ≥10,000 cells were acquired and scored using a LSRII machine (BD Biosciences). Data were processed using the CellQuest software program (BD Biosciences).

[4] = system: CD11b+Ly6G+, CD4+, CD8+, B220+ cells; experiment: Flow cytometry of immune cells in organs of LAP-Tg/KO mice; assay type: in vivo, mouse
Description: Single-cell suspensions from the bone marrow, spleen, blood, liver, and lung were prepared and analyzed as described in Qu et al., Am J Pathol 2009, 174:944-956; Qu et al., Am J Pathol 2010, 176:2394-2404; Qu et al., J Immunol 2009, 182:1648-1659). Approximately 1×10^6 cells from various organs were blocked with FcR blocking antibodies in flow cytometry buffer (BD Biosciences, San Jose, Calif.) followed by incubation with isotype control or surface specific primary antibodies. Anti-CD11b (M1/70) PE-Cyanine7, anti-Ly6G (RB6-8c5) allophycocyanin-eFluor 780, anti-CD4 fluorescein isothiocyanate, anti-CD8 […], and anti-B220 allophycocyanin were purchased from e-Biosciences (San Diego, Calif.). Cells were analyzed on a LSRII machine (BD Biosciences). Data were analyzed using the BD FACStation software (CellQuest Pro version 2.2.1, BD Bio-sciences). The total gated number of positive cells (approximately 30,000 events) was calculated as the percentage of total gated viable cells. Quadrants were assigned using isotype control monoclonal antibody.

[5] = system: Ly6G+CD11b+ cells; experiment: Flow cytometry of Ly6G+CD11b+ cells in CCSP-Tg/KO mice; assay type: in vivo, mouse
Description: For immune cell profile analysis, single cells from the lung, bone marrow, spleen and blood of lal^+/+, lal^−/− and CCSP-Tg/KO triple mice were prepared. Cells were labeled with isotype control or surface-specific primary antibodies at 4° C. for 15 minutes, and then washed and ready for flow cytometry analysis. Anti-CD11b (M1/70) PE-Cyanine7 and anti-Ly6G (RB6-8c5) APC-eFluor® 780 were purchased from eBiosciences (San Diego, Calif., USA). For characterization of tissue-specific expression of the hLAL transgene, single cells from the lungs of lal^+/+, lal^−/− and CCSP-Tg/KO triple mice were prepared and stained. Surfactant protein C (SP-C, AT II epithelial cell marker) Ab and Flag Ab were purchased from Santa Cruz Biotechnology (Dallas, Tex., USA) and Sigma-Aldrich (St. Louis, Mo., USA), respectively. In gated SP-C^+ cells, the number of the Flag^+ cells were analyzed by flow cytometry and calculated based on M1, which is defined by isotype control. Whole spleen cells were used as a control, in which the number of the Flag^+ cells was analyzed. For flow cytometry analysis, ≥30,000 cells were acquired and scored using a LSRII machine (BD Biosciences, San Jose, Calif., USA). Data were processed using the CellQuest software program (BD Biosciences).

[6] = doxycycline-untreated LAP-Tg/KO triple mice (hLAL on)
[7] = doxycycline-treated CCSP-Tg/KO mice

Row | Molecule | tumor size vs ethanol-treated lal−/− Ly6G+ cells ([1]; C57BL/6 Ly6G+ cells into C57BL/6 mice, 7, 14 and 21 days post-injection) | tumor volume ([1]; lal−/− Ly6G+ cells pre-treated 20 μmol/L 24 hours, co-injected s.c. with B16 cells into lal+/+ FVB/N mice, one week after injection, ethanol control 77.6±16.4) [mm^3] | Ly6G+ cells migrated across endothelial monolayer [2] | phosphorylation of S6 (MFI) ([3]; gated lal−/− Ly6G+CD11b+ cells) | phosphorylation of mTOR (MFI) ([3]; gated lal−/− Ly6G+CD11b+ cells) | overall levels of mTOR and S6 ([3]; lal−/− MDSCs) | CD11b+Ly6G+ cell expansion in blood, spleen, lung, bone marrow [4, 6] | percentage and total number of CD11b+Ly6G+ cells in the liver [4, 6] | CD4+ T cells in blood, lung and spleen ([4]; hepatocyte-specific expression, LAP-Tg/KO triple mice) | percentage of Ly6G+CD11b+ cells in the lung ([5]; doxycycline-treated (hLAL on) vs untreated CCSP-Tg/KO mice) | Ly6G+CD11b+ cell accumulation in the blood [5, 7] | Ly6G+CD11b+ cells in the spleen and bone marrow [5, 7]
1 | 9-hydroxyoctadecadienoic acid [9-HODE] | significantly smaller | 36.3±12.4 | less Ly6G^+ cells in the lower chamber | decreased phosphorylation of S6 | decreased phosphorylation of mTOR | reduced the overall levels of mTOR and S6 |  |  |  |  |  | 
2 | B1 |  |  |  |  |  |  | reduction of CD11b^+Ly6G^+ cell expansion was also observed in the blood, spleen, and lung, but not in the bone marrow | decreased to the levels of wild-type mice | increased CD4^+ T cells | significantly decreased | reduced | no reversing effect

— patent US10857209B2, “Lysosomal acid lipase and PPAR gamma ligands as immune therapies for cancer treatment” (Indiana University Research and Technology Corporation, priority 2016, dated 2020)
